Experimental data: ChEMBL document CHEMBL5512683, “Discovery of Novel ERα and Aromatase Dual-Targeting PROTAC Degraders to Overcome Endocrine-Resistant Breast Cancer” (J Med Chem, 2024)
Calls of active or inactive are those of the source. No cut-off for these calls is given here.

Legend:
[1] = tested on: MCF7; assay: Reduction in ERS1 mRNA expression in resistant human MCF7 cells at 5 uM by real-time quantitative polymerase chain reaction (RT-qPCR) analysis; assay type: functional, cell-based
[2] = tested on: MCF7; assay: Reduction in MYC mRNA expression in resistant human MCF7 cells harboring ERalpha Y537S mutant at 5 uM by real-time quantitative polymerase chain reaction (RT-qPCR) analysis; assay type: functional, cell-based
[3] = tested on: MCF7; assay: Reduction in ERS1 mRNA expression in resistant human MCF7 cells harboring ERalpha Y537S mutant at 5 uM by real-time quantitative polymerase chain reaction (RT-qPCR) analysis; assay type: functional, cell-based
[4] = tested on: MCF7; assay: Reduction in ERS1 mRNA expression in resistant human MCF7 cells harboring EGFR at 5 uM by real-time quantitative polymerase chain reaction (RT-qPCR) analysis; assay type: functional, cell-based
[5] = tested on: MCF7; assay: Reduction in MYC mRNA expression in resistant human MCF7 cells at 5 uM by real-time quantitative polymerase chain reaction (RT-qPCR) analysis; assay type: functional, cell-based
[6] = tested on: MCF7; assay: Reduction in MYC mRNA expression in resistant human MCF7 cells harboring ERalpha D538G mutant at 5 uM by real-time quantitative polymerase chain reaction (RT-qPCR) analysis; assay type: functional, cell-based
[7] = target: T1, von Hippel-Lindau disease tumor suppressor/Aromatase (Homo sapiens, UniProt P11511+P40337); assay: PROTAC activity at human ARO/VHL E3 ligase in human MCF-7 cells assessed as degradation of ARO at 1 uM incubated for 24 hrs by Western blot analysis; assay type: cell-based; conditions: mcf7, 24 h
T1 sequence (P40337 whole entry, one chain of several, the tested form may be a part): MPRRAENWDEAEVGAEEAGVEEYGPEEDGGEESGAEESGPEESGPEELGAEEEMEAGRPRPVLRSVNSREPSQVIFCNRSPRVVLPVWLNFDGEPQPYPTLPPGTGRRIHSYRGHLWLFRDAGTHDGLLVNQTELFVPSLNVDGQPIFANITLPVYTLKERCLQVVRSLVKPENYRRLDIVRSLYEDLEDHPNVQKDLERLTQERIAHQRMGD

[8] = tested on: MCF7; assay: Antiproliferative activity against human resistant MCF7 cells harboring ERalpha D538G mutant at LBD assessed as cell viability incubated for 96 hrs by CCK8 assay; conditions: MCF7, 96 h
[9] = Anti-proliferative activity against human MCF-10A cells incubated for 96 hrs by CCK8 assay; assay type: toxicity, cell-based
[10] = tested on: MCF7; assay: Reduction in ERS1 mRNA expression in resistant human MCF7 cells harboring ERalpha D538G mutant at 5 uM by real-time quantitative polymerase chain reaction (RT-qPCR) analysis; assay type: functional, cell-based
[11] = target: T1, von Hippel-Lindau disease tumor suppressor/Aromatase; assay: PROTAC activity at human ARO/VHL E3 ligase in human MCF-7 cells assessed as degradation of ARO incubated for 24 hrs by Western blot analysis; assay type: cell-based; conditions: mcf7, 24 h
[12] = tested on: MCF7; assay: Antiproliferative activity against human resistant MCF7 cells harboring ERalpha Y537S mutant at LBD assessed as cell viability incubated for 96 hrs by CCK8 assay; conditions: MCF7, 96 h
[13] = tested on: MCF7; assay: Antiproliferative activity against human resistant MCF7 cells harboring EGFR assessed as cell viability incubated for 96 hrs by CCK8 assay; conditions: MCF7, 96 h
[14] = tested on: MCF7; assay: Anti-proliferative activity against ERalpha positive human MCF7 cells incubated for 96 hrs by CCK8 assay; conditions: MCF7, 96 h
[15] = tested on: MCF7; assay: Reduction in MYC mRNA expression in resistant human MCF7 cells harboring EGFR at 5 uM by real-time quantitative polymerase chain reaction (RT-qPCR) analysis; assay type: functional, cell-based
[16] = target: T1, von Hippel-Lindau disease tumor suppressor/Aromatase; assay: PROTAC activity at human ARO/VHL E3 ligase in resistant human MCF-7 cells harboring EGFR assessed as degradation of ARO at 0.5 to 10 uM incubated for 24 hrs by Western blot analysis; assay type: cell-based; conditions: mcf7, 24 h, dose 0.5-10 µM
[17] = target: T2, Aromatase (Homo sapiens, UniProt P11511); assay: Inhibition of recombinant human aromatase using ARO substrate/NADP+ mixture by fluorescence assay
T2 sequence (P11511 whole entry): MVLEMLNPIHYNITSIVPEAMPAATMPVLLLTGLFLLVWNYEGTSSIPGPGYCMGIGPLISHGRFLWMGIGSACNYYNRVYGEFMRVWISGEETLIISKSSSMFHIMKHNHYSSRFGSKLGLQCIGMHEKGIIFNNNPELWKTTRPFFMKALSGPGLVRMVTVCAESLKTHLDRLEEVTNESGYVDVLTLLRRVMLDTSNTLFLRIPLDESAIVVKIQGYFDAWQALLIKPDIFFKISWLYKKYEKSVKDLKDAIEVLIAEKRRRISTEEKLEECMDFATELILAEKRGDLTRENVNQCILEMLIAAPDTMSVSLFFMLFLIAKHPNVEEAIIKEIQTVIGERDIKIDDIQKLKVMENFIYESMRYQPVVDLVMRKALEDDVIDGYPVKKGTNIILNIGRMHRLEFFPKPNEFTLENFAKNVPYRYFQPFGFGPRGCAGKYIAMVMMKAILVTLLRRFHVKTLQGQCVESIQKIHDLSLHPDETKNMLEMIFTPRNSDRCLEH

[18] = tested on: MCF7; assay: In vivo PROTAC activity in aromatase/VHL E3 ligase in human MCF7 cell xenografted in Balb/c mouse model assessed as reduction in ARO level in tumor at 5 mg/kg, ip every other day measured upto 20 days; assay type: functional, organism-based; conditions: time <= 20.0 day
[19] = tested on: MCF7; assay: In vivo PROTAC activity in ERalpha/VHL E3 ligase in human MCF7 cell xenografted in Balb/c mouse model assessed as reduction in ERalpha level in tumor at 5 mg/kg, ip every other day measured upto 20 days; assay type: functional, organism-based; conditions: time <= 20.0 day
[20] = tested on: MCF7; assay: In vivo antitumor activity against human MCF7 cells xenografted in Balb/c mouse model assessed as reduction in number of Ki67 positive cells in tumor at 5 mg/kg, ip every other day measured upto 20 days; assay type: functional, organism-based; conditions: time <= 20.0 day
[21] = Toxicity in Balb/c mouse xenografted with human MCF7 cells assessed as cellular morphology in kidney at 5 mg/kg, ip every other day measured upto 20 days; assay type: organism-based; conditions: in vivo, 480 h, time < 20 day
[22] = Toxicity in Balb/c mouse xenografted with human MCF7 cells assessed as cellular morphology in heart at 5 mg/kg, ip every other day measured upto 20 days; assay type: organism-based; conditions: in vivo, 480 h, time < 20 day
[23] = target: T1, von Hippel-Lindau disease tumor suppressor/Aromatase; assay: PROTAC activity at human ARO/VHL E3 ligase in human MCF-7 cells assessed as degradation of ARO at 1 uM incubated for 24 hrs in presence of MG132 by Western blot analysis; assay type: cell-based; conditions: mcf7, 24 h
[24] = tested on: MCF7; assay: Induction of cell cycle arrest in human MCF7 cells assessed as accumulation of cells at G2/M phase at 5 uM incubated for 48 hrs by flow cytometry (reference value: 54.10%); assay type: functional
[25] = tested on: MCF7; assay: Induction of degradation of MYC protein in human MCF7 cells harboring ERalpha Y537S mutant at 0.5 to 5 uM by Western blot analysis; assay type: functional, cell-based; conditions: dose 0.5-5 µM
[26] = Toxicity in Balb/c mouse xenografted with human MCF7 cells assessed as cellular morphology in spleen at 5 mg/kg, ip every other day measured upto 20 days; assay type: organism-based; conditions: in vivo, 480 h, time < 20 day
[27] = tested on: MCF7; assay: Induction of degradation of MYC protein in human MCF7 cells at 0.5 to 5 uM by Western blot analysis; assay type: functional, cell-based; conditions: dose 0.5-5 µM
[28] = tested on: MCF7; assay: Induction of degradation of MYC protein in human MCF7 cells harboring EGFR at 0.5 to 5 uM by Western blot analysis; assay type: functional, cell-based; conditions: dose 0.5-5 µM
[29] = tested on: MCF7; assay: Antitumor activity against human MCF7 cells xenografted in Balb/c mouse model assessed as tumor growth inhibition at 5 mg/kg, ip every other day measured upto 20 days; assay type: functional, organism-based; conditions: time <= 20.0 day
[30] = Toxicity in Balb/c mouse xenografted with human MCF7 cells assessed as cellular morphology in liver at 5 mg/kg, ip every other day measured upto 20 days; assay type: organism-based; conditions: in vivo, 480 h, time < 20 day
[31] = target: Estrogen receptor beta (Homo sapiens, UniProt Q92731); assay: Binding affinity to human ERbeta assessed as inhibition constant incubated under dark condition for 2 hrs by competitive fluorometric binding assay
Sequence of Estrogen receptor beta (Q92731 whole entry): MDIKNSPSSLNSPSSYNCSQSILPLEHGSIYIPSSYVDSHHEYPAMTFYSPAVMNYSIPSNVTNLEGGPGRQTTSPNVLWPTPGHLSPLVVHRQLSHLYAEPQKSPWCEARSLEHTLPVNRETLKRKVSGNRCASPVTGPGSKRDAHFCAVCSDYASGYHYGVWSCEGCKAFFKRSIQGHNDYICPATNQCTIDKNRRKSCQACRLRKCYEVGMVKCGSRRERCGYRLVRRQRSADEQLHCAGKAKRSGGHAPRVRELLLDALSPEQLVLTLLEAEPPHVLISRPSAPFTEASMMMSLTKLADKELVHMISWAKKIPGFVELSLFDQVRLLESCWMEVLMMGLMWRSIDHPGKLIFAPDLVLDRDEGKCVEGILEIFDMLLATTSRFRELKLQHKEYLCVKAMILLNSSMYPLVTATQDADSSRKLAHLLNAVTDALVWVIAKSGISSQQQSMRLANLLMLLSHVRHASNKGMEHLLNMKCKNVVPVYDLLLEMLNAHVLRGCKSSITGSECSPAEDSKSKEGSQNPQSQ

[32] = tested on: MCF7; assay: Induction of degradation of MYC protein in human MCF7 cells harboring ERalpha D538G mutant at 0.5 to 5 uM by Western blot analysis; assay type: functional, cell-based; conditions: dose 0.5-5 µM
[33] = Toxicity in Balb/c mouse xenografted with human MCF7 cells assessed as body weight loss at 5 mg/kg, ip every other day measured upto 20 days; assay type: organism-based; conditions: in vivo, 480 h, time < 20 day

Compound	Activity [2]	Activity [3]	Activity [4]	Activity [6]	Activity [7]	IC50 [8] [µM]	IC50 at 96 h [9] [µM]	Activity [10]	Activity [11]	IC50 [12] [µM]	IC50 [13] [µM]	IC50 [14] [µM]	Activity [15]	IC50 [17] [µM]	Activity [18]	Activity [19]	Ki [31] [µM]	also measured
Cc1ncsc1-c1ccc([C@H](C)NC(=O)[C@@H]2C[C@@H](O)CN2C(=O)[C@@H](NC(=O)COCCOCCOc2ccc(N(CC(F)(F)F)S(=O)(=O)C3CC4OC3C(c3ccc(-n5ccnc5)cc3)=C4c3ccc(O)cc3)cc2)C(C)(C)C)cc1 (some centres not stated)	Active	inactive	inactive	Active	Active	10	> 100	inactive	Dose-Dependent Effect	2.1	4.4	0.35	Active	0.32				Activity [1]: inactive; Activity [5]: inactive; Activity [16]: Active
C[C@]12CC[C@@H]3c4ccc(O)cc4C[C@@H](CCCCCCCCC[S+]([O-])CCCC(F)(F)C(F)(F)F)[C@H]3[C@@H]1CC[C@@H]2O (some centres not stated) [FULVESTRANT]							> 100							> 100	Active	Active		
Cc1ncsc1-c1ccc([C@H](C)NC(=O)[C@@H]2C[C@@H](O)CN2C(=O)[C@@H](NC(=O)CCCCCOc2ccc(N(CC(F)(F)F)S(=O)(=O)C3CC4OC3C(c3ccc(-n5ccnc5)cc3)=C4c3ccc(O)cc3)cc2)C(C)(C)C)cc1 (some centres not stated)	Active	Active	Active	Active	Active	0.31	> 100	Active	Dose-Dependent Effect	2.3	0.075	0.54	Active	4.6	Active	Active	> 79	Activity [20]: Active; Activity [21]: Non-Toxic; Activity [22]: Non-Toxic; Activity [23]: Not Active; Activity [24]: 66.31%; Activity [25]: inactive; Activity [26]: Non-Toxic; Activity [27]: Active; Activity [28]: inactive; Activity [29]: Active; Activity [30]: Non-Toxic; Activity [32]: inactive; Activity [33]: Non-Toxic
N#Cc1ccc(C(c2ccc(C#N)cc2)n2cncn2)cc1 [LETROZOLE]							> 100								Active	Active		
Cc1ncsc1-c1ccc([C@H](C)NC(=O)[C@@H]2C[C@@H](O)CN2C(=O)[C@@H](NC(=O)COCCOc2ccc(N(CC(F)(F)F)S(=O)(=O)C3CC4OC3C(c3ccc(-n5ccnc5)cc3)=C4c3ccc(O)cc3)cc2)C(C)(C)C)cc1 (some centres not stated)					Active	> 100	> 100			15	> 100	1.5		3.9			> 79	
